Common to all, as to experiment: inhibition of tumour cell growth, NCI panel, 48 h
For experiment [1], the system named is HCT-116 colon.
Experiment [2] relates to IGROV1 ovarian.
In experiment [3] the test system is A549 NSCLC.
The test system of experiment [4] is OVCAR-8 ovarian.
In experiment [5] the test system is COLO 205 colon.
Experiment [6] has as its system 786-0 renal.
The test system of experiment [7] is RPMI-8226 leukemia.
The subject of experiment [8] is EKVX NSCLC.
Experiment [9] deals with HT29 colon.
The subject of experiment [10] is NCI-H522 lung.

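Exposure lasted 48 hours, with cells grown in 96-well plates and compounds tested at five concentrations. GI50 is the concentration that inhibits growth by half. TGI denotes the concentration required for complete inhibition of growth.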 A value given as a limit tells only on which side of the number the result lay.

With `CCCCCCCCOC(=O)c1cc(O)c(O)c(O)c1`, the GI50 is 1.97 µM in experiment [1]; 0.913 µM in [2]; 12.7 µM in [3]; 3.14 µM in [4]; 9.36 µM in [5]; 2.46 µM in experiment [6]. The GI50 in [7] is 0.511 µM; in experiment [8], 4.65 µM; in experiment [9], 14.8 µM. The TGI in experiment [1] was determined as 12.9 µM; in experiment [2] it was 4.88 µM; in experiment [3], 49 µM; in experiment [4] it was 37.5 µM; in [5], 24.8 µM; in [6], 11.9 µM. The TGI in experiment [7] is above 100 µM; in experiment [8], 22.4 µM; in [9] it was 47.6 µM.

For `N#C/C(=C/c1cccs1)c1cccs1`, the GI50 in [1], in experiment [10], in experiment [2], in experiment [3], in [4] and in experiment [5] was above 100 µM in each case. Also, the GI50 in experiment [6], in experiment [8] and in experiment [9] was above 100 µM in each case. The TGI in experiment [1], in experiment [10], in experiment [2], in experiment [3], in [4] and in experiment [5] was above 100 µM throughout. The TGI in experiment [6], in [8] and in [9] was above 100 µM each time.

With `C=CC1(C)/C(=N\O)C(C)(CC)C(=O)N1O` (stereo unspecified), the TGI in experiment [1], in [10], in [2], in experiment [3], in experiment [4] and in experiment [5] was above 100 µM each time. For the same compound, the TGI in [6], in [8] and in [9] was above 100 µM in each case.

As to `COc1cccc(C(=O)O)c1Cc1cccc2ccccc12`, the TGI in [1], in [10], in experiment [2], in [3], in [4] and in experiment [5] was above 100 µM throughout. Also, the TGI in [6], in experiment [8] and in [9] was above 100 µM in each case.

As for `CCN(CCc1ccc(F)cc1)c1ccc(CO)c(Cl)c1`, the GI50 is 1.85 µM in experiment [1]; 10.9 µM in experiment [10]; 0.824 µM in experiment [2]; 9.36 µM in [3]; 10.8 µM in [4]; 7.06 µM in experiment [5]. In addition, the GI50 is 12.2 µM in experiment [6], 4.69 µM in [7] and 11.3 µM in experiment [9]. Moreover, the TGI is 13.5 µM in experiment [1]; 25.4 µM in experiment [10]; 7.11 µM in experiment [2]; 24.4 µM in [3]; 27.4 µM in [4]; 21.5 µM in experiment [5]. Moreover, the TGI in experiment [6] came to 27 µM; in experiment [7], 27.4 µM; in experiment [9], 27.3 µM.

As to `CC(=O)[CH-]C(=O)c1ccccc1.CC(=O)[CH-]C(=O)c1ccccc1.[O-]c1ccc(O)cc1.[O-]c1ccc(O)cc1.[Ti+4]`, the GI50 in experiment [1] is 15.1 µM; in experiment [10] it was 1.97 µM; in [2], 23.7 µM; in [3], 23.5 µM; in experiment [4] it was 13.5 µM; in [5], 18.2 µM. In addition, the GI50 in [6] is 13.2 µM; in experiment [7], 5.63 µM; in experiment [9], 21.5 µM. Further, the TGI in experiment [1] was 28.3 µM; in experiment [10] it was 4.37 µM; in experiment [2] it was 63 µM; in experiment [3] it was above 100 µM; in [4], 31.5 µM; in experiment [5] it was 32.6 µM. The TGI in experiment [6] is 26 µM; in [7] it was above 100 µM; in [9], 59.7 µM.

Turning to `CC(=O)N1C(=O)C(=O)c2cc(Cl)ccc21`, the TGI in experiment [2], in experiment [3], in experiment [4], in [5], in experiment [6] and in [7] was above 100 µM throughout. For the same compound, the TGI in experiment [8] and in experiment [9] was above 100 µM throughout.

As for `COc1ccc(/C=C2/CCOC2=O)cc1`, the GI50 in [1], in [2], in experiment [3], in experiment [4], in [5] and in [6] was above 100 µM in each case. Moreover, the GI50 in experiment [9] is above 100 µM. Also, the TGI in experiment [1], in [2], in [3], in experiment [4], in experiment [5] and in experiment [6] was above 100 µM in each case. For the same compound, the TGI in [9] was above 100 µM.

For `CC(=O)c1ccc(NCn2nc(-c3ccccc3O)oc2=S)cc1`, the GI50 is above 100 µM in [1]; above 100 µM in experiment [10]; above 100 µM in experiment [2]; 37.8 µM in experiment [3]; above 100 µM in experiment [4]; 43.4 µM in [5]. Also, the values for the GI50 in experiment [6], in [8] and in experiment [9] were 74.1 µM, above 100 µM and 47 µM, respectively. The TGI in [1], in experiment [10], in experiment [2], in experiment [3], in experiment [4] and in experiment [5] was above 100 µM throughout. In addition, the TGI in [6], in experiment [8] and in experiment [9] was above 100 µM in each case.

Turning to `COc1cccc2c1C(=O)c1c(O)c3c(c(O)c1C2=O)C[C@@](O)(C(=O)COC(=O)c1cccnc1)C[C@@H]3OC1CC(N)C(O)C(C)O1` (stereo partly specified), the GI50 was 0.0475 µM in experiment [1]; 0.0574 µM in [10]; 0.121 µM in [2]; 0.0774 µM in experiment [3]; 0.183 µM in [4]; 0.168 µM in experiment [5]. Further, the values for the GI50 in experiment [6], in [7] and in experiment [9] were 0.14 µM, 0.114 µM and 0.199 µM, respectively. For the same compound, the TGI is 0.492 µM in [1]; 0.217 µM in [10]; 3.79 µM in experiment [2]; 0.533 µM in [3]; 4.85 µM in [4]; 1.01 µM in [5]. Besides, the TGI turned out to be 1.25 µM in experiment [6], 0.714 µM in [7] and 1.53 µM in experiment [9].

As for `CC(=O)OC1C(O)COC(Oc2c(C)c3c4c(c2O)[C@@H](C)CC[C@@H]4[C@@H](C)C[C@H]3C=C(C)C)C1O` (stereo partly specified), the GI50 in [1] is 21.1 µM; in experiment [10], 30.9 µM; in [2], 28.9 µM; in experiment [3], 16 µM; in experiment [4], 23 µM; in experiment [5] it was 21.5 µM. For the same compound, the GI50 was 27 µM in experiment [6] and 13.3 µM in experiment [7]. Moreover, the TGI in experiment [1] was above 100 µM; in experiment [10] it was above 100 µM; in experiment [2] it was above 100 µM; in experiment [3] it was 40.3 µM; in experiment [4], 49.8 µM; in experiment [5], 50.5 µM. Besides, the TGI was above 100 µM in experiment [6] and 33.2 µM in experiment [7].

With `CCC1(c2ccncc2)CCC(=O)NC1=O` (stereo unspecified), the TGI in experiment [1], in experiment [2], in experiment [3], in [4], in experiment [5] and in [6] was above 100 µM throughout. Besides, the TGI in experiment [7], in [8] and in [9] was above 100 µM in each case.

With `CC[O+]=c1cccc2ssnc1-2`, the TGI was above 100 µM in [1]; 82.6 µM in experiment [10]; above 100 µM in experiment [2]; above 100 µM in experiment [3]; above 100 µM in [4]; above 100 µM in experiment [5]. Also, the TGI in [6], in experiment [8] and in [9] was above 100 µM each time.

Turning to `CC(=O)C1C(=O)C(=O)N(c2ccc(Cl)cc2C)C1=O` (stereo unspecified), the TGI in [1], in [10], in [2], in experiment [3], in experiment [4] and in experiment [5] was above 100 µM in each case. The TGI in [6], in experiment [8] and in experiment [9] was above 100 µM each time.

On to `CCOC(=O)NC(=O)c1cn(-c2ccc(CCOC(=O)CCCCCCCCC(=O)OCCc3ccc(-n4cc(C(=O)NC(=O)OCC)c(=O)[nH]c4=O)cc3)cc2)c(=O)[nH]c1=O`, for which the TGI in [1], in experiment [2], in experiment [3], in [4], in experiment [5] and in experiment [6] was above 100 µM throughout. The TGI in [7], in experiment [8] and in [9] was above 100 µM throughout.

As for `c1ccc(CN2CCC3(CC2)ONC2=NCCN23)cc1`, the GI50 in experiment [1] is 49.1 µM; in [10], 37.8 µM; in experiment [2], 35.8 µM; in experiment [3] it was 88.4 µM; in experiment [4], 60.9 µM; in experiment [5] it was 50.4 µM. Also, the GI50 in experiment [6] was 42.6 µM; in [8], above 100 µM; in [9], 61.4 µM. The TGI in experiment [1], in experiment [10], in experiment [2], in experiment [3], in experiment [4] and in experiment [5] was above 100 µM throughout. For the same compound, the TGI in [6], in experiment [8] and in experiment [9] was above 100 µM each time.

With `C[C@]1(O)CC(=O)[C@]2(O)C3=C(C=C[C@]2(O)C1)C(=O)c1c(O)cccc1C3=O`, the GI50 in experiment [1] is 0.649 µM; in experiment [3] it was 16.3 µM; in experiment [4], 2.67 µM; in experiment [5], 0.229 µM; in experiment [6], 2.88 µM; in experiment [7], 1.64 µM. For the same compound, the GI50 in [8] is 11.6 µM; in [9], 3.26 µM. Besides, the TGI in [1] was 2.56 µM; in experiment [3], 38.6 µM; in [4], 7.75 µM; in experiment [5] it was 0.584 µM; in experiment [6] it was 8.5 µM; in [7], 5.65 µM. Besides, the TGI was 23.8 µM in [8] and above 100 µM in [9].

Consider `CC1=C(CC/C(C)=C/CCC2(C)CCC([C@H](C)C(=O)O)OO2)C(C)(C)CCC1` (stereo partly specified) (tested in a mixture with another compound), for which the TGI in experiment [1], in [10], in [3], in experiment [4], in [5] and in experiment [6] was above 100 µM each time. Moreover, the TGI in [8] and in experiment [9] was above 100 µM in each case.

For `CP(=O)(CCSc1ccccc1)c1ccccc1` (stereo unspecified), the TGI in experiment [1], in experiment [2], in experiment [3], in [4], in [5] and in [6] was above 100 µM each time. Besides, the TGI in experiment [7], in experiment [8] and in [9] was above 100 µM throughout.

Consider `S=C1SC2(CCCCCC2)NC2=C1CCCCC2`, for which the TGI in experiment [1] is above 100 µM; in experiment [2], above 100 µM; in experiment [3] it was above 100 µM; in [4], above 100 µM; in experiment [5], 35.8 µM; in experiment [6], above 100 µM. The TGI in experiment [7] was 69.3 µM; in experiment [8] it was 44.2 µM; in experiment [9], above 100 µM.

Turning to `CCCC(=O)C(CC)/C(CCC(=O)N(Cc1ccccc1)Cc1ccccc1)=N/NC(=O)C[N+](C)(C)C` (stereo unspecified), the TGI in [1], in experiment [10], in experiment [2], in experiment [3], in [4] and in experiment [5] was above 100 µM each time. Besides, the TGI in [6], in experiment [8] and in [9] was above 100 µM each time.

Take `CN1NC(c2ccccc2)=C(C#N)C(=O)CC1c1ccccc1Cl` (stereo unspecified): the TGI in [1], in experiment [10], in experiment [3], in [5], in [6] and in experiment [7] was above 100 µM in each case. In experiment [9], this compound returned a TGI above 100 µM.

(Values after PubChem BioAssay (NCI).)
